From ChEMBL document CHEMBL4004820 (J Med Chem, 2017)

What was measured:
MDCK = experiment: Cytotoxicity against MDCK cells measured after 72 hrs et staining-based microscopic analysis; assay type: cell-based, Canis lupus familiaris; conditions: dog
[1] = Antiviral activity against Influenza A virus (A/WSN/1933(H1N1)) expressing wild-type M2 proton channel infected in MDCK cells assessed as reduction in cytopathic effect after 48 hrs by crystal violet staining-based microscopic analysis; assay type: functional, cell-based
[2] = test system: Influenza A virus (A/Udorn/307/1972(H3N2))
[3] = test system: Influenza A virus (A/California/07/2009(H1N1)); experiment: Inhibition of full-length Influenza A virus (A/California/07/2009(H1N1)) M2 proton channel expressed in HEK cells assessed as inhibition of low-pH-dependent inward proton currents at 100 uM and pH 5.5 measured after 3 mins in presence of CaCl2 by electrophysiology method relative to control; assay type: cell-based
[4] = test system: Influenza A virus (A/California/07/2009(H1N1)); experiment: Inhibition of full-length Influenza A virus (A/California/07/2009(H1N1)) M2 proton channel expressed in HEK cells assessed as inhibition of low-pH-dependent inward proton currents at 100 uM and pH 5.5 measured after 30 mins in presence of CaCl2 by electrophysiology method relative to control; assay type: cell-based
[5] = Binding affinity to Influenza virus A (A/Udorn/72 (H3N2)) M2 protein at pH 7.5 in presence of KCl by electrophysiology method; set-up: species or system Influenza A virus (A/udorn/1972(H3N2))
[6] = test system: Influenza A virus (A/Udorn/307/1972(H3N2)); remark: listed apart in the source
[7] = test system: Influenza A virus (A/Udorn/307/1972(H3N2)); remark: listed apart in the source

Row | SMILES | CC50 (MDCK) [µM] | IC50 [1] | -TdeltaS [2] [kcal/mol] | IC50 ([1]; Influenza A virus, MDCK, 48 h, read-out: IC50) [µM] | inhibition [3] [%] | inhibition [4] [%] | Kd [5] [µM] | Activity [6] [degree] | Activity [7] [degree]
1 | NC1C2CC3CC(C2)CC1C3 (stereo not drawn) | 70.5 | Not Active | -0.93 |  |  |  |  |  | 
2 | CCOC(=O)C1=C[C@@H](OC(CC)CC)[C@H](NC(C)=O)[C@@H](N)C1 [OSELTAMIVIR] |  |  |  | 0.02 |  |  |  |  | 
3 | C1CNC2(C1)C1CC3CC(C1)CC2C3 (stereo not drawn) | > 100 | Not Active | -3.97 |  | 4 | 5 |  |  | 
4 | CCC1(N)C2CC3CC(C2)CC1C3 (stereo not drawn) | > 100 | Not Active | -1.38 |  |  |  |  |  | 
5 | CN1CCCC12C1CC3CC(C1)CC2C3 (stereo not drawn) | > 100 | Not Active | -4.46 |  |  |  |  |  | 
6 | NC12CC3CC(CC(C3)C1)C2 [AMANTADINE] | > 100 | Not Active | -1.11 |  |  |  | 9 | 32 | 22
7 | CC12CC3CC(CC(C3)C13CCCN3)C2 (stereo not drawn) | > 100 | Not Active | -3 |  |  |  |  |  | 
8 | CCCC1(N)C2CC3CC(C2)CC1C3 (stereo not drawn) | > 100 | Not Active | -0.932 |  |  |  |  | 32 | 22
9 | NC1(C23CC4CC(CC(C4)C2)C3)CCCCC1 | > 100 | Not Active |  |  |  |  |  |  | 
10 | NC1(C23CC4CC(CC(C4)C2)C3)CCCC1 | > 100 | Not Active |  |  | 4 | 4 |  |  | 
11 | CC1(N)C2CC3CC(C2)CC1C3 (stereo not drawn) | 25.6 | Not Active | -1.51 |  |  |  |  |  | 
